Read-outs that look alike come from different tables or passages of the source. Values belong to the molecule of their own block, whether it stands above or below them.
Tests used:
[1] = Stability of the complex / its solution after preparation; assay type: physicochemical; conditions: reaction solution after preparation
Experimental: In a mixture of 0.6 ml of ethanol and […] ( 1 mol/l) of an aqueous HCl solution were dissolved 5 mg of SDH and 1.5 mg of PNP, followed by adding thereto a physiologically acceptable ^99mTcO4^− solution ( 0.5 ml, 50 MBq). The resulting mixture was heated at 80° C. for 20 minutes and then cooled to 40° C., after which 0.25 ml of HCO3^−/CO3^2− buffer was added thereto to adjust the pH at about 8.0. Subsequently, a solution of 0.5 mg of βglu in 1.5 ml of water was added. The complex finally obtained was analyzed by […] and HPLC. […] The radiochemical purity of the final complex was higher than 95%. […]
In a mixture of 0.6 ml of ethanol and […] ( 1 mol/l) of an aqueous HCl solution were dissolved 5 mg of SDH and 1.5 mg of PNP, followed by adding thereto a physiologically acceptable ^99mTcO4 solution ( 0.5 ml, 50 MBq). […] The complex finally obtained was analyzed by HTLC and HPLC. […]
In a mixture of 0.6 ml of ethanol and 0.1 mg (1 mol/l) of an aqueous HCl solution were dissolved 5 mg of SDH and 1.5 mg of PNP, followed by adding thereto a physiologically acceptable ^99mTcO4^− solution (0.5 ml, 50 MBq). […] The complex finally obtained was analyzed by HTLC and HPLC. […]

[2] = Biodistribution of 99mTc(N)(X)(DTC)+ heterocomplexes in rats; assay type: in vivo, male Spraque-Dawley rats (SD rats)

Compound: CCN1CC[PH](c2ccccc2)(c2ccccc2)[99Tc]2(#[N])([O]C(=O)c3ccccc3[S]2)[PH](c2ccccc2)(c2ccccc2)CC1 [Example 3]
stability of the complex / solution of the complex [1]: stable

stability of the complex / solution of the complex [1]: stable
Compound: CCON(CC)C1=[S+][99Tc]2(#[N])([S]1)[PH](c1ccccc1)(c1ccccc1)CCN(CC)CC[PH]2(c1ccccc1)c1ccccc1 [Example 4]

Bone % dose/g [2]: 0.225 ± 0.01 % dose/g | Heart % dose/g [2]: 0.923 ± 0.04 % dose/g | Liver % dose/g [2]: 3.662 ± 0.43 % dose/g | Spleen % dose/g [2]: 2.202 ± 0.07 % dose/g | Blood % dose/g ([2]; 0 min after injection): 2.617 ± 0.04 % dose/g | Brain % dose/g ([2]; 0 min after injection): 0.142 ± 0.14 % dose/g | Intestine % dose/g ([2]; 0 min after injection): 0.482 ± 0.02 % dose/g | Kidney % dose/g ([2]; 0 min after injection): 3.141 ± 0.35 % dose/g | Lung % dose/g ([2]; 0 min after injection): 2.792 ± 0.18 % dose/g | Muscle % dose/g ([2]; 0 min after injection): 0.087 ± 0.00 % dose/g | Stomach % dose/g ([2]; 0 min after injection): 0.522 ± 0.09 % dose/g | Blood % dose/g ([2]; 2 min after injection): 1.254 ± 0.19 % dose/g | Bone % dose/g ([2]; 2 min after injection): 0.214 ± 0.05 % dose/g | Brain % dose/g ([2]; 2 min after injection): 0.073 ± 0.00 % dose/g | Heart % dose/g ([2]; 2 min after injection): 0.73 ± 0.07 % dose/g | Intestine % dose/g ([2]; 2 min after injection): 0.581 ± 0.06 % dose/g | Kidney % dose/g ([2]; 2 min after injection): 5.952 ± 0.74 % dose/g | Liver % dose/g ([2]; 2 min after injection): 4.821 ± 0.71 % dose/g | Lung % dose/g ([2]; 2 min after injection): 2.387 ± 0.08 % dose/g | Muscle % dose/g ([2]; 2 min after injection): 0.075 ± 0.00 % dose/g | Spleen % dose/g ([2]; 2 min after injection): 3.587 ± 0.99 % dose/g | Stomach % dose/g ([2]; 2 min after injection): 0.493 ± 0.02 % dose/g | Blood % dose/g ([2]; 10 min after injection): 0.542 ± 0.02 % dose/g | Bone % dose/g ([2]; 10 min after injection): 0.306 ± 0.07 % dose/g | Brain % dose/g ([2]; 10 min after injection): 0.029 ± 0.00 % dose/g | Heart % dose/g ([2]; 10 min after injection): 0.434 ± 0.05 % dose/g | Intestine % dose/g ([2]; 10 min after injection): 0.934 ± 0.03 % dose/g | Kidney % dose/g ([2]; 10 min after injection): 4.805 ± 0.51 % dose/g | Liver % dose/g ([2]; 10 min after injection): 6.161 ± 0.47 % dose/g | Lung % dose/g ([2]; 10 min after injection): 1.19 ± 0.40 % dose/g | Muscle % dose/g ([2]; 10 min after injection): 0.069 ± 0.01 % dose/g | Spleen % dose/g ([2]; 10 min after injection): 3.538 ± 0.70 % dose/g | Stomach % dose/g ([2]; 10 min after injection): 0.653 ± 0.06 % dose/g | Blood % dose/g ([2]; 30 min after injection): 0.547 ± 0.01 % dose/g | Bone % dose/g ([2]; 30 min after injection): 0.21 ± 0.02 % dose/g | Brain % dose/g ([2]; 30 min after injection): 0.023 ± 0.00 % dose/g | Heart % dose/g ([2]; 30 min after injection): 0.428 ± 0.05 % dose/g | Intestine % dose/g ([2]; 30 min after injection): 0.64 ± 0.00 % dose/g | Kidney % dose/g ([2]; 30 min after injection): 3.25 ± 1.12 % dose/g | Liver % dose/g ([2]; 30 min after injection): 6.199 ± 0.15 % dose/g | Lung % dose/g ([2]; 30 min after injection): 1.05 ± 0.13 % dose/g | Muscle % dose/g ([2]; 30 min after injection): 0.083 ± 0.03 % dose/g | Spleen % dose/g ([2]; 30 min after injection): 2.07 ± 0.55 % dose/g | Stomach % dose/g ([2]; 30 min after injection): 0.216 ± 0.01 % dose/g | Blood % dose/g ([2]; 1 hr after injection): 0.261 ± 0.14 % dose/g | Bone % dose/g ([2]; 1 hr after injection): 0.327 ± 0.02 % dose/g | Brain % dose/g ([2]; 1 hr after injection): 0.019 ± 0.00 % dose/g | Heart % dose/g ([2]; 1 hr after injection): 0.42 ± 0.05 % dose/g | Intestine % dose/g ([2]; 1 hr after injection): 1.236 ± 0.03 % dose/g | Kidney % dose/g ([2]; 1 hr after injection): 5.054 ± 0.18 % dose/g | Liver % dose/g ([2]; 1 hr after injection): 5.128 ± 0.15 % dose/g | Lung % dose/g ([2]; 1 hr after injection): 0.771 ± 0.09 % dose/g | Muscle % dose/g ([2]; 1 hr after injection): 0.068 ± 0.01 % dose/g | Spleen % dose/g ([2]; 1 hr after injection): 3.542 ± 1.23 % dose/g | Stomach % dose/g ([2]; 1 hr after injection): 0.944 ± 0.16 % dose/g | Blood % dose/g ([2]; 2 hr after injection): 0.145 ± 0.01 % dose/g | Bone % dose/g ([2]; 2 hr after injection): 0.296 ± 0.01 % dose/g | Brain % dose/g ([2]; 2 hr after injection): 0.018 ± 0.01 % dose/g | Heart % dose/g ([2]; 2 hr after injection): 0.384 ± 0.00 % dose/g | Intestine % dose/g ([2]; 2 hr after injection): 1.478 ± 0.09 % dose/g | Kidney % dose/g ([2]; 2 hr after injection): 5.145 ± 0.11 % dose/g | Liver % dose/g ([2]; 2 hr after injection): 3.05 ± 0.07 % dose/g | Lung % dose/g ([2]; 2 hr after injection): 0.757 ± 0.05 % dose/g | Muscle % dose/g ([2]; 2 hr after injection): 0.066 ± 0.03 % dose/g | Spleen % dose/g ([2]; 2 hr after injection): 4.32 ± 0.19 % dose/g | Stomach % dose/g ([2]; 2 hr after injection): 1.857 ± 0.22 % dose/g | Blood % dose/g ([2]; 4 hr after injection): 0.125 ± 0.00 % dose/g | Bone % dose/g ([2]; 4 hr after injection): 0.321 ± 0.01 % dose/g | Brain % dose/g ([2]; 4 hr after injection): 0.01 ± 0.00 % dose/g | Heart % dose/g ([2]; 4 hr after injection): 0.303 ± 0.01 % dose/g | Intestine % dose/g ([2]; 4 hr after injection): 1.843 ± 0.02 % dose/g | Kidney % dose/g ([2]; 4 hr after injection): 1.745 ± 0.11 % dose/g | Liver % dose/g ([2]; 4 hr after injection): 1.538 ± 0.01 % dose/g | Lung % dose/g ([2]; 4 hr after injection): 0.549 ± 0.03 % dose/g | Muscle % dose/g ([2]; 4 hr after injection): 0.067 ± 0.00 % dose/g | Spleen % dose/g ([2]; 4 hr after injection): 3.094 ± 0.50 % dose/g | Stomach % dose/g ([2]; 4 hr after injection): 1.74 ± 0.01 % dose/g
Compound: CSC1=[S+][99Tc-2]2(#[N])([NH]N1C)[P+](c1ccccc1)(c1ccccc1)CCOCC[P+]2(c1ccccc1)c1ccccc1 [^99mTc(N)(POP)(DTC)^+]
